In patent publication US10538535B2, “Antitumoral compounds” (priority 2017, dated 2020):
Where two headings read alike, the source gives them in different places.

How the values were obtained:
[1] = system: A549 cells; test: cells; settings: Homo sapiens, A549, 72 h; for CC50: read-out: LC50; for IC (TGI): read-out: TGI
Description: (§1) The aim of this assay is to evaluate the in vitro cytostatic (ability to delay or arrest tumor cell growth) or cytotoxic (ability to kill tumor cells) activity of the samples being tested.
(§2) A colorimetric assay, using sulforhodamine B (SRB) reaction has been adapted to provide a quantitative measurement of cell growth and viability (following the technique described by Skehan et al. J. Natl. Cancer Inst. 1990, 82, 1107-1112). Another colorimetric assay based on 3-(4,5-Dimethylthiazol-2-yl)-2,5-diphenyltetrazolium bromide (MTT) reduction to a purple formazan has been also used to assess the antiproliferative activity (following the technique described by Mosmann et al. J. Immunol. Meth. 1983, 65, 55-63).
(§3) These forms of assays employ 96-well cell culture microplates following the standards of the American National Standards Institute and the Society for Laboratory Automation and Screening (ANSI SLAS 1-2004 (R2012) Oct. 12, 2011. All the cell lines used in this study were obtained from the American Type Culture Collection (ATCC) and derive from different types of human cancer.
(§4) A549, HT29, MDA-MB-231 and PSN1 cells were maintained in Dulbecco's Modified Eagle Medium (DMEM) while PC-3 and 22Rv1 cells were maintained in Roswell Park Memorial Institute Medium (RPMI). All cell lines were supplemented with 10% Fetal Bovine Serum (FBS), 2 mM L-glutamine, 100 U/mL penicillin, and 100 […] at 37° C., 5% CO2 and 98% humidity. For the experiments, cells were harvested from subconfluent cultures using trypsinization and resuspended in fresh medium before counting and plating.
(§5) A549, HT29, MDA-MB-231 and PSN1 cells were seeded in 96 well microtiter plates, at 5000 cells per well in aliquots of 150 μL, and allowed to attach to the plate surface for 18 hours (overnight) in drug free medium. After that, one control (untreated) plate of each cell line was fixed (as described below) and used for time zero reference value. Culture plates were then treated with test compounds (50 μL aliquots of 4× stock solutions in complete culture medium plus 4% DMSO) using ten 2/5 serial dilutions (concentrations ranging from 10 to 0.003 μg/mL) and triplicate cultures (1% final concentration in DMSO). After 72 hours treatment, the antitumor effect was measured by using the SRB methodology: Briefly, cells were washed twice with PBS, fixed for 15 min in 1% glutaraldehyde solution at room temperature, rinsed twice in PBS, and stained in 0.4% SRB solution for 30 min at room temperature. Cells were then rinsed several times with 1% acetic acid solution and air-dried at room temperature.
(§6) Effects on cell growth and survival were estimated by applying the NCI algorithm (Boyd M R and Paull K D. Drug Dev. Res. 1995, 34, 91-104). The values obtained in triplicate cultures were fitted by nonlinear regression to a four-parameters logistic curve by nonlinear regression analysis.

[2] = system: HT29 cells; test: cells; settings: Homo sapiens, HT-29, 72 h; for CC50: read-out: LC50; for IC (TGI): read-out: TGI
Description: as §1, §2, §3, §4, §5, §6

[3] = system: MDA-MB-231 cells; test: cells; settings: Homo sapiens, MDA-MB-231, 72 h; for CC50: read-out: LC50; for IC (TGI): read-out: TGI
Description: as §1, §2, §3, §4, §5, §6

[4] = system: PSN1 cells; test: cells; settings: Homo sapiens, PSN1, 72 h; for CC50: read-out: LC50; for IC (TGI): read-out: TGI
Description: as §1, §2, §3, §4, §5, §6

[5] = system: PC-3 tumors; settings: 12-R 0.05 mg/kg
Description: In this model, instead of male, female animals were used because PC-3 growth is not hormone dependant.

[6] = system: H82 tumors; test: In vivo xenograft, human lung (SCLC) H82; settings: iv weekly, 47-R 0.1 mg/Kg, Compound D 0.5 mg/Kg
[7] = system: H526 tumors; test: In vivo xenograft, human lung (SCLC) H526; settings: iv weekly, 47-R 0.1 mg/Kg, Compound D 0.5 mg/Kg
Description: Female athymic nu/nu mice (Harlan Laboratories Models, S. L. Barcelona, Spain or Envigo, Spain) were utilized for all experiments. Animal were housed in individually ventilated cages Sealsafe® Plus, Techniplast S.P.A.), up to ten per cage on a 12-hour light-dark cycle at 21-23° C. and 40-60% humidity. Mice were allowed free access to irradiated standard rodent diet (Tecklad 2914C) and sterilized water. Animals were acclimated for at least 5 days prior to tumor implantation with a tumor cell suspension.
H526 cells were grown as a suspension and maintained by addition of fresh medium, as the cell density increases, every 2 to 3 days. Every week, culture was reestablished by centrifugation of the suspension with subsequent resuspension in fresh medium at a concentration of 1×10^5 cell/mL. Each animal was subcutaneously implanted (on the right flank using 26 G needle and a 1 cc syringe) at 4-6 weeks of age with 5×10^6 H526 cells suspended in 0.05 mL of a solution consisting of 50% Matrigel® (Corning Incorporated Life Sciences) and 50% medium without serum or antibiotics.
Treatment tolerability was assessed by monitoring body weight evolution, clinical signs of systemic toxicity, as well as evidences of local damage in the injection site.
Treatments producing >20% lethality and/or 20% net body weight loss were considered toxic.

## COc1ccc2[nH]c3c(c2c1)C[C@@H](CN)N[C@]31CS[C@@H]2c3c(OC(C)=O)c(C)c4c(c3[C@H](COC1=O)N1[C@@H]2[C@H]2c3c(cc(C)c(OC)c3O)C[C@@H]([C@@H]1O)N2C)OCO4 [Compound 27-S]
[1]
  GI50: 6.02 nM
  CC50: > 123 nM
  IC (TGI): 11.2 nM
[2]
  CC50: > 123 nM
  IC (TGI): 1.35 nM
[3]
  GI50: 1.19 nM
  CC50: 1.35 nM
[4]; PSN1, 72 hours treatment, SRB
  GI50: 1.97 nM
[4]
  CC50: 4.55 nM
  IC (TGI): 2.83 nM

## COc1c(C)cc2c(c1O)[C@@H]1[C@@H]3[C@@H]4SC[C@]5(N[C@H](CN)Cc6c5oc5ccccc65)C(=O)OC[C@@H](c5c6c(c(C)c(OC(C)=O)c54)OCO6)N3[C@@H](O)[C@H](C2)N1C [Compound 47-S]
[1]
  CC50: > 127 nM
[2]
  CC50: > 127 nM
[3]
  CC50: 16.6 nM
[4]
  CC50: 12.7 nM

## COc1ccc2[nH]c3c(c2c1)C[C@H](CN)N[C@]31CS[C@@H]2c3c(OC(C)=O)c(C)c4c(c3[C@H](COC1=O)N1[C@@H]2[C@H]2c3c(cc(C)c(OC)c3O)C[C@@H]([C@@H]1O)N2C)OCO4 [Compound 27-R]
[1]
  GI50: 2.09 nM
  CC50: 10.1 nM
  IC (TGI): 3.93 nM
[2]
  GI50: 0.504 nM
  CC50: > 123 nM
  IC (TGI): 0.553 nM
[3]
  GI50: 0.307 nM
  CC50: 0.86 nM
  IC (TGI): 0.541 nM
[4]; PSN1, 72 hours treatment, SRB
  GI50: 0.639 nM
[4]
  CC50: 2.46 nM
  IC (TGI): 1.17 nM

## COc1ccc2[nH]c3c(c2c1)C[C@@H](C(=O)O)N[C@]31CS[C@@H]2c3c(OC(C)=O)c(C)c4c(c3[C@H](COC1=O)N1[C@@H]2[C@H]2c3c(cc(C)c(OC)c3O)C[C@@H]([C@@H]1O)N2C)OCO4 [Compound 29-S]
[1]
  GI50: 615 nM
  CC50: > 1210 nM
  IC (TGI): > 1210 nM
[2]
  GI50: 362 nM
  CC50: 832 nM
  IC (TGI): 531 nM
[3]
  GI50: 217 nM
  CC50: 688 nM
  IC (TGI): 374 nM
[4]
  GI50: 386 nM
  CC50: 688 nM
  IC (TGI): 507 nM

## COc1c(C)cc2c(c1O)[C@@H]1[C@@H]3[C@@H]4SC[C@]5(N[C@H](CN)Cc6c5[nH]c5ccccc65)C(=O)OC[C@@H](c5c6c(c(C)c(OC(C)=O)c54)OCO6)N3[C@@H](O)[C@H](C2)N1C [Compound 12-S]
[1]
  CC50: > 128 nM
[2]
  CC50: > 128 nM
[5]; Day 0, iv Days 0, 7 and 14, 12-S […]
  Median Tumor Volume: 128.0 mm^3
[5]; Day 2, iv Days 0, 7 and 14, 12-S […]
  Median Tumor Volume: 141.5 mm^3
[5]; Day 4, iv Days 0, 7 and 14, 12-S […]
  Median Tumor Volume: 143.7 mm^3
[5]; Day 7, iv Days 0, 7 and 14, 12-S […]
  Median Tumor Volume: 183.9 mm^3
[5]; Day 11, iv Days 0, 7 and 14, 12-S […]
  Median Tumor Volume: 208.1 mm^3
[5]; Day 14, iv Days 0, 7 and 14, 12-S […]
  Median Tumor Volume: 270.7 mm^3
[5]; Day 16, iv Days 0, 7 and 14, 12-S […]
  Median Tumor Volume: 286.3 mm^3
[5]; Day 18, iv Days 0, 7 and 14, 12-S […]
  Median Tumor Volume: 336.1 mm^3
[5]; Day 21, iv Days 0, 7 and 14, 12-S […]
  Median Tumor Volume: 357.1 mm^3
[5]; Day 23, iv Days 0, 7 and 14, 12-S […]
  Median Tumor Volume: 400.8 mm^3
[5]; Day 25, iv Days 0, 7 and 14, 12-S […]
  Median Tumor Volume: 443.6 mm^3
[5]; Day 29, iv Days 0, 7 and 14, 12-S […]
  Median Tumor Volume: 523.4 mm^3
[5]; Day 32, iv Days 0, 7 and 14, 12-S […]
  Median Tumor Volume: 652.6 mm^3
[5]; Day 35, iv Days 0, 7 and 14, 12-S […]
  Median Tumor Volume: 689.7 mm^3
[5]; Day 37, iv Days 0, 7 and 14, 12-S […]
  Median Tumor Volume: 692.2 mm^3
[5]; Day 39, iv Days 0, 7 and 14, 12-S […]
  Median Tumor Volume: 726.9 mm^3
[5]; Day 42, iv Days 0, 7 and 14, 12-S […]
  Median Tumor Volume: 823.7 mm^3
[5]; Day 44, iv Days 0, 7 and 14, 12-S […]
  Median Tumor Volume: 864.2 mm^3
[5]; Day 46, iv Days 0, 7 and 14, 12-S […]
  Median Tumor Volume: 1182.8 mm^3
[5]; Day 49, iv Days 0, 7 and 14, 12-S […]
  Median Tumor Volume: 1219.2 mm^3
[5]; Day 51, iv Days 0, 7 and 14, 12-S […]
  Median Tumor Volume: 1331.9 mm^3
[5]; Day 56, iv Days 0, 7 and 14, 12-S […]
  Median Tumor Volume: 1335.2 mm^3

## COc1c(C)cc2c(c1O)[C@@H]1[C@@H]3[C@@H]4SC[C@]5(N[C@@H](CN)Cc6c5oc5ccccc65)C(=O)OC[C@@H](c5c6c(c(C)c(OC(C)=O)c54)OCO6)N3[C@@H](O)[C@H](C2)N1C [Compound 47-R]
[2]
  CC50: > 127 nM
[3]
  CC50: 2.55 nM
[4]
  CC50: 3.31 nM
[6]; Table 57, Day 0
  Median Tumor Volume: 169.0 mm^3
[6]; Table 57, Day 2
  Median Tumor Volume: 371.6 mm^3
[6]; Table 57, Day 5
  Median Tumor Volume: 888.8 mm^3
[6]; Table 57, Day 7
  Median Tumor Volume: 1314.2 mm^3
[6]; Table 57, Day 9
  Median Tumor Volume: 1811.0 mm^3
[6]; Table 57, Day 12
  Median Tumor Volume: 2055.4 mm^3
[7]; Table 56, Day 0
  Median Tumor Volume: 211.5 mm^3
[7]; Table 56, Day 2
  Median Tumor Volume: 367.9 mm^3
[7]; Table 56, Day 4
  Median Tumor Volume: 583.7 mm^3
[7]; Table 56, Day 7
  Median Tumor Volume: 941.7 mm^3
[7]; Table 56, Day 9
  Median Tumor Volume: 1305.2 mm^3
[7]; Table 56, Day 11
  Median Tumor Volume: 1484.7 mm^3
[7]; Table 56, Day 14
  Median Tumor Volume: 2025.0 mm^3
